In patent US7998969B2, “Non-nucleoside reverse transcriptase inhibitors” (Roche Palo Alto LLC, priority 2006, dated 2011):
Where two headings read alike, the source gives them in different places.

Key:
[1] = target: HIV-1 reverse transcriptase (HIV-RT enzyme) (Human immunodeficiency virus type 1 group M subtype B, UniProt P03366); experiment: HIV-1 Reverse Transcriptase Assay Inhibitor IC50 Determination (RNA-dependent DNA polymerase activity, SPA); assay type: biochemical
Description: HIV-1 Reverse Transcriptase Assay Inhibitor IC50 Determination
RNA-dependent DNA polymerase activity was measured using a biotinylated primer oligonucleotide and tritiated dNTP substrate. Newly synthesized DNA was quantified by capturing the biotinylated primer molecules on streptavidin coated Scintillation Proximity Assay (SPA) beads (Amersham). The sequences of the polymerase assay substrate were: 18 nt DNA primer, 5′-Biotin/GTC CCT GTT CGG GCG CCA-3′; 47 nt RNA template, 5′-GGGUCUCUCUGGUUAGACCACUCUAGCAGUGGCGCCCGAACAGGGAC-3′. The biotinylated DNA primer was obtained from the Integrated DNA Technologies Inc. and the RNA template was synthesized by Dharmacon. The DNA polymerase assay (final volume 50 μl) contained 32 nM biotinylated DNA primer, 64 nM RNA substrate, dGTP, dCTP, dTTP (each at 5 μM), 103 nM [^3H]-dATP (specific activity=[…]), in 45 mM Tris-HCl, pH 8.0, 45 mM NaCl, 2.7 mM Mg(CH3COO)2, 0.045% Triton X-100 w/v, 0.9 mM EDTA. The reactions contained 5 μl of serial compound dilutions in 100% DMSO for IC50 determination and the final concentrations of DMSO were 10%. Reactions were initiated by the addition of […] of the HIV-RT enzyme (final concentrations of 1-3 nM). Protein concentrations were adjusted to provide linear product formation for at least 30 min of incubation. After incubation at 30° for 30 min, the reaction was quenched by addition of 50 μl of 200 mM EDTA (pH 8.0) and 2 mg/ml SA-PVT SPA beads (Amersham, RPNQ0009, reconstituted in 20 mM Tris-HCl, pH 8.0, 100 mM EDTA and 1% BSA). The beads were left to settle overnight and the SPA signals were counted in a 96-well top counter-NXT (Packard). IC50 values were obtained by sigmoidal regression analysis using GraphPad Prism 3.0 (GraphPad Software, Inc.).

[2] = tested on: wild-type laboratory strain HIV-1HXB2; experiment: Recombinant HIV-1 Antiviral Assay (MTT cell viability assay with MT-4 cells); assay type: cell-based; details: Human immunodeficiency virus 1, MT4, 120 h
Description: Recombinant HIV-1 Antiviral Assay
The sensitivity of a wild-type laboratory strain HIV-1HXB2 to described compounds was determined by the 3-[4,5-dimethylthiazol-2yl]-2,5-diphenyltetrazolium bromide (MTT) cell viability assay with MT-4 cells (R. Pauwels et al., “Rapid and automated tetrazolium-based colorimetric assay for the detection of anti-HIV compounds,” J. Virological Methods 1988 20:309-321). Briefly, MT-4 cells were incubated with virus (MOI 0.0001) for 1 h at 37° C. and then resuspended at 7.5×10^5/mL in RPMI 1640 (with out phenol) (Gibco) with 10% FCS and antibiotics and plated out onto a 96 well plate (Corning Costar, USA). After 5 days incubation 20 μL of MTT (Sigma-Aldrich) (5 mg/mL in PBS) was added and the plates were incubated for 2 h before the addition of 170 μL of acidified IPA. The absorbance was measured at 540 nm and the TCID50 determined by Spearman-Karber method.

[3] = MT-4 cells infected with HIV-1HXB2, MTT readout after 5 days, read-out: Antiviral Activity IC50
[4] = SPA polymerase assay, 30 min at 30°, read-out: HIVRT inhibition IC50

Compound: Cc1cc(C#N)cc(C)c1Oc1ccnc(NC2CCN(Cc3ccccc3)CC2)n1 [I-1, 4-[2-(1-Benzyl-piperidin-4-ylamino)-pyrimidin-4-yloxy]-3,5-dimethyl-benzonitrile]
- melting point: 162 to 163.3 °C

Compound: Cc1cc(C#N)cc(C)c1Oc1nc(NC2CCN(Cc3ccccc3)CC2)ncc1Br [I-2, 4-[2-(1-Benzyl-piperidin-4-ylamino)-5-bromo-pyrimidin-4-yloxy]-3,5-dimethyl-benzonitrile]
- melting point: 158 to 159.8 °C

Compound: Cc1cc(C#N)cc(C)c1Oc1ccnc(NC2CCN(Cc3ccc(S(C)(=O)=O)cc3)CC2)n1 [I-3, 4-{2-[1-(4-Methanesulfonyl-benzyl)-piperidin-4-ylamino]-pyrimidin-4-yloxy}-3,5-dimethyl-benzonitrile]
- IC50 [1]: 34.1 nM
- IC50 [2, 3]: 0.003 µM

Compound: Cc1cc(C#N)cc(C)c1Oc1nc(NC2CCN(Cc3ccc(S(N)(=O)=O)cc3Cl)CC2)nc(N)c1Br [II-1]
- IC50 [1, 4]: 105 nM
- IC50 ([2]; read-out: Antiviral Activity IC50(μM)): 0.0086 µM

Compound: Cc1cc(C#N)cc(C)c1Nc1ccnc(NC2CCN(Cc3ccc(S(C)(=O)=O)cc3Cl)CC2)n1 [III-1, 4-{2-[1-(2-Chloro-4-methanesulfonyl-benzyl)-piperidin-4-ylamino]-pyrimidin-4-ylamino}-3,5-dimethyl-benzonitrile]
- IC50 [1]: 25.7 nM
- IC50 [2, 3]: 0.0022 µM

Compound: Cc1cc(C#N)cc(C)c1Oc1ccnc(NC2CCN(c3cccc(S(N)(=O)=O)c3)CC2)n1 [IV-3]
- IC50 [1]: 14.7 nM
- IC50 [2, 3]: 0.0004 µM

Compound: Cc1cc(C#N)cc(Cl)c1Oc1nc(NC2CCN(c3cccc(C(N)=O)c3)CC2)ncc1Br [IV-13]
- IC50 [1]: 27.9 nM
- IC50 [2, 3]: 0.0058 µM

Compound: Cc1cc(C#N)cc(C)c1Oc1ccnc(NC2CCN(c3cc(Cl)cc(C#N)c3)CC2)n1 [IV-23]
- IC50 [1, 4]: 37.7 nM

Compound: Cc1cc(C#N)cc(C)c1Nc1nc(NC2CCN(c3cccc(C#N)c3)CC2)ncc1Br [V-3]
- IC50 [1, 4]: 40 nM

Compound: Cc1cc(C#N)cc(C)c1Nc1nc(NC2CCN(c3cccc(C(N)=O)c3)CC2)ncc1Br [V-5]
- IC50 [1]: 28.1 nM
- IC50 [2, 3]: 0.0015 µM
